“And” between values parts separate entries of the source, which are not always exact repeats. Identical values can stand only once. Like-named read-outs stand apart in the source and are kept apart here.
Test system: panel of 140 standard cancer cell lines
Test: ProliFiler-140 cancer cell line screen (CellTiterGlo, 72 h)
Format: cell-based
Protocol: Incubations were performed for 72 h before automated viability readout with CellTiterGlo (Figure 8).
End of Figure S11 (part 5 of 5): ProliFiler-140 cancer cell line screening for cytotoxicity of the prodrugs.
8-data-point dose response curves from CellTiter-Glo® viability readout.
ProliFiler-140 cell line panel part V

## COc1cc2cc(C(=O)N3C[C@@H](CCl)c4c3cc(OC(=O)N(CCC(=O)N3CCN(C)CC3)C3CCCCC3)c3ccccc43)[nH]c2c(OC)c1OC [P-CC60-CBI-TMI]
MEC-1 (Blood), read-out: IC50 [M] (ProliFiler-140)
  IC50: 8.9e-08 M and 8.89e-08 M
MKN-1 (Stomach), read-out: IC50 [M] (ProliFiler-140)
  IC50: 1.5e-06 M and 1.53e-06 M
MKN-45 (Stomach), read-out: IC50 [M] (ProliFiler-140)
  IC50: 4.87e-07 M and 4.9e-07 M
MOLM-13 (Blood), read-out: IC50 [M] (ProliFiler-140)
  IC50: 6.1e-08 M and 6.05e-08 M
MOLT-4 (Blood), read-out: IC50 [M] (ProliFiler-140)
  IC50: 7.6e-08 M and 7.57e-08 M
MV4-11 (Blood), read-out: IC50 [M] (ProliFiler-140)
  IC50: 1.2e-08 M and 1.18e-08 M
Mia PaCA 2 (Pancreas), read-out: IC50 [M] (ProliFiler-140)
  IC50: 3.75e-07 M and 3.8e-07 M
NALM-6 (Blood), read-out: IC50 [M] (ProliFiler-140)
  IC50: 5.58e-08 M and 5.6e-08 M
NCI-H82 (Lung), read-out: IC50 [M] (ProliFiler-140)
  IC50: 7.5e-07 M
NCI-H292 (Lung), read-out: IC50 [M] (ProliFiler-140)
  IC50: 2.6e-07 M and 2.59e-07 M
NCI-H441 (Lung), read-out: IC50 [M] (ProliFiler-140)
  IC50: 2.94e-07 M and 2.9e-07 M
NCI-H838 (Lung), read-out: IC50 [M] (ProliFiler-140)
  IC50: 7.5e-07 M and 7.54e-07 M
NCI-H1048 (Lung), read-out: IC50 [M] (ProliFiler-140)
  IC50: 5.9e-08 M and 5.92e-08 M
NCI-H1437 (Lung), read-out: IC50 [M] (ProliFiler-140)
  IC50: 3.01e-07 M and 3e-07 M
NCI-H1563 (Lung), read-out: IC50 [M] (ProliFiler-140)
  IC50: 1.7e-06 M and 1.69e-06 M
NCI-H1573 (Lung), read-out: IC50 [M] (ProliFiler-140)
  IC50: 1.1e-06 M and 1.07e-06 M
NCI-H1581 (Lung), read-out: IC50 [M] (ProliFiler-140)
  IC50: 4.32e-07 M and 4.3e-07 M
NCI-H1703 (Lung), read-out: IC50 [M] (ProliFiler-140)
  IC50: 8.1e-07 M and 8.15e-07 M
NCI-H1838 (Lung), read-out: IC50 [M] (ProliFiler-140)
  IC50: 8.2e-07 M and 8.19e-07 M
NCI-H2009 (Lung), read-out: IC50 [M] (ProliFiler-140)
  IC50: 4.22e-07 M and 4.2e-07 M
NCI-H2110 (Lung), read-out: IC50 [M] (ProliFiler-140)
  IC50: 1.4e-07 M and 1.44e-07 M
NCI-H2286 (Lung), read-out: IC50 [M] (ProliFiler-140)
  IC50: 1.2e-07 M and 1.25e-07 M
NCI-N87 (Stomach), read-out: IC50 [M] (ProliFiler-140)
  IC50: 1.1e-06 M and 1.15e-06 M
OCI-AML3 (Blood), read-out: IC50 [M] (ProliFiler-140)
  IC50: 1.3e-07 M and 1.33e-07 M
OCI-AML5 (Blood), read-out: IC50 [M] (ProliFiler-140)
  IC50: 3.4e-08 M and 3.39e-08 M
OCI-LY19 (Blood), read-out: IC50 [M] (ProliFiler-140)
  IC50: 1.53e-08 M and 1.5e-08 M
OPM-2 (Blood), read-out: IC50 [M] (ProliFiler-140)
  IC50: 6.61e-07 M and 6.6e-07 M
OV56 (Ovary), read-out: IC50 [M] (ProliFiler-140)
  IC50: 2.02e-07 M and 2e-07 M
OVCAR-3 (Ovary), read-out: IC50 [M] (ProliFiler-140)
  IC50: 1e-06 M and 1.02e-06 M
OVCAR-3, read-out: IC50
  IC50: 1e-06 M
OVK18 (Ovary), read-out: IC50 [M] (ProliFiler-140)
  IC50: 2e-07 M
P31/FUJ (Blood), read-out: IC50 [M] (ProliFiler-140)
  IC50: 1.9e-07 M and 1.88e-07 M
PANC-1 (Pancreas), read-out: IC50 [M] (ProliFiler-140)
  IC50: 1.4e-06 M and 1.38e-06 M
PC3 (Prostate), read-out: IC50 [M] (ProliFiler-140)
  IC50: 5.17e-07 M and 5.2e-07 M
PC-9 (Lung), read-out: IC50 [M] (ProliFiler-140)
  IC50: 1.1e-07 M and 1.14e-07 M
RERF-LC-Ad2 (Lung), read-out: IC50 [M] (ProliFiler-140)
  IC50: 7.8e-07 M and 7.84e-07 M
RERF-LC-MS (Lung), read-out: IC50 [M] (ProliFiler-140)
  IC50: 4.59e-07 M and 4.6e-07 M
RKO (Colon), read-out: IC50 [M] (ProliFiler-140)
  IC50: 2.98e-07 M and 3e-07 M
RL95-2 (Endometrium), read-out: IC50 [M] (ProliFiler-140)
  IC50: 7.43e-07 M and 7.4e-07 M
RPMI 8226 (Blood), read-out: IC50 [M] (ProliFiler-140)
  IC50: 3.38e-07 M and 3.4e-07 M
RPMI 8226, read-out: IC50
  IC50: 3.4e-07 M
SCH (Stomach), read-out: IC50 [M] (ProliFiler-140)
  IC50: 3.9e-07 M and 3.87e-07 M
SCLC-21H (Lung), read-out: IC50 [M] (ProliFiler-140)
  IC50: 1.58e-07 M and 1.6e-07 M
SJSA-1 (Bone), read-out: IC50 [M] (ProliFiler-140)
  IC50: 3.78e-07 M and 3.8e-07 M
SK-BR-3 (Breast), read-out: IC50 [M] (ProliFiler-140)
  IC50: 3.7e-07 M
SK-ES-1 (Bone), read-out: IC50 [M] (ProliFiler-140)
  IC50: 3.35e-08 M and 3.4e-08 M
SK-LU-1 (Lung), read-out: IC50 [M] (ProliFiler-140)
  IC50: 1.6e-07 M and 1.62e-07 M
SK-MEL-3 (Skin), read-out: IC50 [M] (ProliFiler-140)
  IC50: 1e-06 M and 1.03e-06 M
SK-N-FI (Brain), read-out: IC50 [M] (ProliFiler-140)
  IC50: 6.81e-07 M and 6.8e-07 M
SK-N-MC (Brain), read-out: IC50 [M] (ProliFiler-140)
  IC50: 1.3e-08 M and 1.33e-08 M
SK-N-SH (Brain), read-out: IC50 [M] (ProliFiler-140)
  IC50: 7.5e-07 M and 7.45e-07 M
SK-OV3 (Ovary), read-out: IC50 [M] (ProliFiler-140)
  IC50: 4.38e-07 M and 4.4e-07 M
SK-OV3, read-out: IC50
  IC50: 4.4e-07 M
SNU840 (Ovary), read-out: IC50 [M] (ProliFiler-140)
  IC50: 6.99e-08 M and 7e-08 M
SNU-1 (Stomach), read-out: IC50 [M] (ProliFiler-140)
  IC50: 2.3e-07 M and 2.27e-07 M
SNU-16 (Stomach), read-out: IC50 [M] (ProliFiler-140)
  IC50: 7.09e-07 M and 7.1e-07 M
SNU-216 (Stomach), read-out: IC50 [M] (ProliFiler-140)
  IC50: 1.84e-06 M and 1.8e-06 M
SU-DHL-5 (Blood), read-out: IC50 [M] (ProliFiler-140)
  IC50: 5e-08 M and 4.98e-08 M
SW480 (Colon), read-out: IC50 [M] (ProliFiler-140)
  IC50: 3.31e-07 M and 3.3e-07 M
SW620 (Colon), read-out: IC50 [M] (ProliFiler-140)
  IC50: 6.99e-07 M and 7e-07 M
SW948 (Colon), read-out: IC50 [M] (ProliFiler-140)
  IC50: 6.79e-07 M and 6.8e-07 M
SW-1783 (Brain), read-out: IC50 [M] (ProliFiler-140)
  IC50: 4.78e-07 M and 4.8e-07 M
Saos-2 EC (Bone), read-out: IC50 [M] (ProliFiler-140)
  IC50: 2.34e-07 M and 2.3e-07 M
SiHa (Ovary), read-out: IC50 [M] (ProliFiler-140)
  IC50: 6.13e-07 M and 6.1e-07 M
T84 (Colon), read-out: IC50 [M] (ProliFiler-140)
  IC50: 9.09e-07 M and 9.1e-07 M
T98G (Brain), read-out: IC50 [M] (ProliFiler-140)
  IC50: 6.6e-07 M
T-47D (Breast), read-out: IC50 [M] (ProliFiler-140)
  IC50: 1e-06 M and 1.04e-06 M
T-47D, read-out: IC50
  IC50: 1e-06 M
U2OS (Bone), read-out: IC50 [M] (ProliFiler-140)
  IC50: 1.31e-07 M and 1.3e-07 M
U87MG (Brain), read-out: IC50 [M] (ProliFiler-140)
  IC50: 1.2e-06 M and 1.22e-06 M
U118MG (Brain), read-out: IC50 [M] (ProliFiler-140)
  IC50: 3.92e-07 M and 3.9e-07 M
U251MG (Brain), read-out: IC50 [M] (ProliFiler-140)
  IC50: 2e-06 M
U-266 (Blood), read-out: IC50 [M] (ProliFiler-140)
  IC50: 1.41e-07 M and 1.4e-07 M
U-937 (Blood), read-out: IC50 [M] (ProliFiler-140)
  IC50: 7.39e-08 M and 7.4e-08 M
ZR-75-1 (Breast), read-out: IC50 [M] (ProliFiler-140)
  IC50: 1.42e-06 M and 1.4e-06 M
read-out: IC50 [M] (ProliFiler-140)
  IC50: 2.36e-07 M and 2.4e-07 M
